Tested on: PDC KRAS tumor spheroids with HUVEC/MSC, viability
Experiment: Anticancer human tumor 349418-098-R-PDC patient-derived lung adenocarcinoma cell line growth inhibition [KRAS2]
Settings: for IC50: curve of first compound; for viability, T/C: stronger effect = lower value
Outline: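 KRAS-mutant tumor cells were grown as spheroids with HUVEC endothelial cells and human MSCs as stroma. Targeted agents were tested alone and with KRAS pathway inhibitors. Doses started at or near clinical Cmax, or 10 microM, descending half-log.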

[1] = second compound 0.1 µM, first compound 0.0316 µM
[2] = second compound 0.1 µM, first compound 0.1 µM
[3] = second compound 0.1 µM, first compound 0.316 µM
[4] = second compound 0.1 µM, first compound 1 µM
[5] = second compound 0.1 µM, first compound 3.16 µM
[6] = second compound 0.1 µM, first compound 10 µM
[7] = second compound 0.316 µM, first compound 0.0316 µM
[8] = second compound 0.316 µM, first compound 0.1 µM
[9] = second compound 0.316 µM, first compound 0.316 µM
[10] = second compound 0.316 µM, first compound 1 µM
[11] = second compound 0.316 µM, first compound 3.16 µM
[12] = second compound 0.316 µM, first compound 10 µM
[13] = second compound 1 µM, first compound 0.0316 µM
[14] = second compound 1 µM, first compound 0.1 µM
[15] = second compound 1 µM, first compound 0.316 µM
[16] = second compound 1 µM, first compound 1 µM
[17] = second compound 1 µM, first compound 3.16 µM
[18] = second compound 1 µM, first compound 10 µM
[19] = second compound 3.16 µM, first compound 0.0316 µM
[20] = second compound 3.16 µM, first compound 0.1 µM
[21] = second compound 3.16 µM, first compound 0.316 µM
[22] = second compound 3.16 µM, first compound 1 µM
[23] = second compound 3.16 µM, first compound 3.16 µM
[24] = second compound 3.16 µM, first compound 10 µM
[25] = second compound 10 µM, first compound 0.0316 µM
[26] = second compound 10 µM, first compound 0.1 µM
[27] = second compound 10 µM, first compound 0.316 µM
[28] = second compound 10 µM, first compound 1 µM
[29] = second compound 10 µM, first compound 3.16 µM
[30] = second compound 10 µM, first compound 10 µM
[31] = second compound 0.1 µM, first compound 0.000316 µM
[32] = second compound 0.1 µM, first compound 0.001 µM
[33] = second compound 0.1 µM, first compound 0.00316 µM
[34] = second compound 0.1 µM, first compound 0.01 µM
[35] = second compound 0.316 µM, first compound 0.000316 µM
[36] = second compound 0.316 µM, first compound 0.001 µM
[37] = second compound 0.316 µM, first compound 0.00316 µM
[38] = second compound 0.316 µM, first compound 0.01 µM
[39] = second compound 1 µM, first compound 0.000316 µM
[40] = second compound 1 µM, first compound 0.001 µM
[41] = second compound 1 µM, first compound 0.00316 µM
[42] = second compound 1 µM, first compound 0.01 µM
[43] = second compound 3.16 µM, first compound 0.000316 µM
[44] = second compound 3.16 µM, first compound 0.001 µM
[45] = second compound 3.16 µM, first compound 0.00316 µM
[46] = second compound 3.16 µM, first compound 0.01 µM
[47] = second compound 10 µM, first compound 0.000316 µM
[48] = second compound 10 µM, first compound 0.001 µM
[49] = second compound 10 µM, first compound 0.00316 µM
[50] = second compound 10 µM, first compound 0.01 µM
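Note: spheroids exposed to compounds for seven days before readout.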

CC(C)NCC(C(=O)N1CCN(c2ncnc3c2C(C)CC3O)CC1)c1ccc(Cl)cc1 (stereo not given) + CNCc1ccccc1-c1csc(C(C)Nc2nc(C)nc3cc(OC)c(OC)cc23)c1
IC50 (second compound 0.1 µM): 257 nM
IC50 (second compound 0.316 µM): 208 nM
IC50 (second compound 1 µM): 106 nM
IC50 (second compound 3.16 µM): < 31.6 nM
IC50 (second compound 10 µM): < 31.6 nM
viability, T/C [1]: 95%
viability, T/C [2]: 88%
viability, T/C [3]: 39.6%
viability, T/C [4]: 22.7%
viability, T/C [5]: 14.1%
viability, T/C [6]: 6.42%
viability, T/C [7]: 96.5%
viability, T/C [8]: 68.6%
viability, T/C [9]: 39.3%
viability, T/C [10]: 19.7%
viability, T/C [11]: 12.6%
viability, T/C [12]: 6.01%
viability, T/C [13]: 79.1%
viability, T/C [14]: 52.3%
viability, T/C [15]: 16.3%
viability, T/C [16]: 9.95%
viability, T/C [17]: 1.69%
viability, T/C [18]: 3.8%
viability, T/C [19]: 0.09%
viability, T/C [20]: 0.11%
viability, T/C [21]: 0.03%
viability, T/C [22]: 0.03%
viability, T/C [23]: 0.27%
viability, T/C [24]: 0.09%
viability, T/C [25]: 0.08%
viability, T/C [26]: 0.08%
viability, T/C [27]: 0.07%
viability, T/C [28]: 0.25%
viability, T/C [29]: 0.07%
viability, T/C [30]: 0.13%

CC(C)n1nc(-c2ccc3oc(N)nc3c2)c2c(N)ncnc21 + CNCc1ccccc1-c1csc(C(C)Nc2nc(C)nc3cc(OC)c(OC)cc23)c1
IC50 (second compound 0.1 µM): 0.987 nM
IC50 (second compound 0.316 µM): 0.883 nM
IC50 (second compound 1 µM): 0.558 nM
IC50 (second compound 3.16 µM): < 0.316 nM
IC50 (second compound 10 µM): < 0.316 nM
viability, T/C [31]: 103%
viability, T/C [32]: 49.1%
viability, T/C [33]: 20.9%
viability, T/C [34]: 8.09%
viability, T/C [1]: 8.36%
viability, T/C [2]: 7.55%
viability, T/C [35]: 106%
viability, T/C [36]: 43.2%
viability, T/C [37]: 13.3%
viability, T/C [38]: 8.02%
viability, T/C [7]: 7.42%
viability, T/C [8]: 6.91%
viability, T/C [39]: 73.1%
viability, T/C [40]: 26.3%
viability, T/C [41]: 9.14%
viability, T/C [42]: 7.12%
viability, T/C [13]: 5.59%
viability, T/C [14]: 6.98%
viability, T/C [43]: 0.08%
viability, T/C [44]: 0.18%
viability, T/C [45]: 0.03%
viability, T/C [46]: 0.06%
viability, T/C [19]: 0.06%
viability, T/C [20]: 0.13%
viability, T/C [47]: 0.08%
viability, T/C [48]: 0.08%
viability, T/C [49]: 0.07%
viability, T/C [50]: 0.09%
viability, T/C [25]: 0.09%
viability, T/C [26]: 0.15%

CC1(C)CCC(CN2CCN(c3ccc(C(=O)NS(=O)(=O)c4ccc(NCC5CCOCC5)c([N+](=O)[O-])c4)c(Oc4cnc5[nH]ccc5c4)c3)CC2)=C(c2ccc(Cl)cc2)C1 + CNCc1ccccc1-c1csc(C(C)Nc2nc(C)nc3cc(OC)c(OC)cc23)c1
IC50 (second compound 0.1 µM): 1790 nM
IC50 (second compound 0.316 µM): 1690 nM
IC50 (second compound 1 µM): 1280 nM
IC50 (second compound 3.16 µM): < 31.6 nM
IC50 (second compound 10 µM): < 31.6 nM
viability, T/C [1]: 101%
viability, T/C [2]: 99.7%
viability, T/C [3]: 94.6%
viability, T/C [4]: 89.7%
viability, T/C [5]: 11.3%
viability, T/C [6]: 5.21%
viability, T/C [7]: 97%
viability, T/C [8]: 96.4%
viability, T/C [9]: 87%
viability, T/C [10]: 82.6%
viability, T/C [11]: 11.5%
viability, T/C [12]: 3.91%
viability, T/C [13]: 74.1%
viability, T/C [14]: 66.9%
viability, T/C [15]: 72%
viability, T/C [16]: 61.6%
viability, T/C [17]: 6.96%
viability, T/C [18]: 2.51%
viability, T/C [19]: 0.13%
viability, T/C [20]: 0.14%
viability, T/C [21]: 0.11%
viability, T/C [22]: 0.12%
viability, T/C [23]: 0.12%
viability, T/C [24]: 0.15%
viability, T/C [25]: 0.11%
viability, T/C [26]: 0.12%
viability, T/C [27]: 0.1%
viability, T/C [28]: 0.09%
viability, T/C [29]: 0.08%
viability, T/C [30]: 0.15%

CCN1CCN(Cc2ccc(Nc3ncc(F)c(-c4cc(F)c5nc(C)n(C(C)C)c5c4)n3)nc2)CC1 + CNCc1ccccc1-c1csc(C(C)Nc2nc(C)nc3cc(OC)c(OC)cc23)c1
IC50 (second compound 0.1 µM): 7.79 nM
IC50 (second compound 0.316 µM): 3.7 nM
IC50 (second compound 1 µM): < 3.16 nM
IC50 (second compound 3.16 µM): < 3.16 nM
IC50 (second compound 10 µM): < 3.16 nM
viability, T/C [33]: 71%
viability, T/C [34]: 45.5%
viability, T/C [1]: 21.4%
viability, T/C [2]: 14.4%
viability, T/C [3]: 11.6%
viability, T/C [4]: 3.5%
viability, T/C [37]: 53.5%
viability, T/C [38]: 31.7%
viability, T/C [7]: 15.1%
viability, T/C [8]: 16.1%
viability, T/C [9]: 10.9%
viability, T/C [10]: 2.1%
viability, T/C [41]: 34.4%
viability, T/C [42]: 11.7%
viability, T/C [13]: 4.86%
viability, T/C [14]: 5.28%
viability, T/C [15]: 2.85%
viability, T/C [16]: 2.48%
viability, T/C [45]: 0.3%
viability, T/C [46]: 0.05%
viability, T/C [19]: 4.57%
viability, T/C [20]: 0.17%
viability, T/C [21]: 0.02%
viability, T/C [22]: 0.07%
viability, T/C [49]: 0.18%
viability, T/C [50]: 0.06%
viability, T/C [25]: 0.06%
viability, T/C [26]: 0.1%
viability, T/C [27]: 0.07%
viability, T/C [28]: 0.1%

CCNC(=O)CC1N=C(c2ccc(Cl)cc2)c2cc(OC)ccc2-n2c(C)nnc21 (stereo not given) + CNCc1ccccc1-c1csc(C(C)Nc2nc(C)nc3cc(OC)c(OC)cc23)c1
IC50 (second compound 0.1 µM): 133 nM
IC50 (second compound 0.316 µM): 124 nM
IC50 (second compound 1 µM): 77.3 nM
IC50 (second compound 3.16 µM): < 31.6 nM
IC50 (second compound 10 µM): < 31.6 nM
viability, T/C [1]: 103%
viability, T/C [2]: 58.5%
viability, T/C [3]: 24.3%
viability, T/C [4]: 12.4%
viability, T/C [5]: 2.7%
viability, T/C [6]: 1.11%
viability, T/C [7]: 107%
viability, T/C [8]: 55.7%
viability, T/C [9]: 24.7%
viability, T/C [10]: 13.5%
viability, T/C [11]: 2.81%
viability, T/C [12]: 1.21%
viability, T/C [13]: 86.6%
viability, T/C [14]: 39.5%
viability, T/C [15]: 13.9%
viability, T/C [16]: 4.94%
viability, T/C [17]: 0.98%
viability, T/C [18]: 0.31%
viability, T/C [19]: 0.11%
viability, T/C [20]: 0.08%
viability, T/C [21]: 0.04%
viability, T/C [22]: 0.02%
viability, T/C [23]: 0.01%
viability, T/C [24]: 0.08%
viability, T/C [25]: 0.11%
viability, T/C [26]: 0.11%
viability, T/C [27]: 0.09%
viability, T/C [28]: 0.09%
viability, T/C [29]: 0.08%
viability, T/C [30]: 0.28%

Cn1ncnc1[C@H]1c2n[nH]c(=O)c3cc(F)cc(c23)N[C@@H]1c1ccc(F)cc1 + CNCc1ccccc1-c1csc(C(C)Nc2nc(C)nc3cc(OC)c(OC)cc23)c1
IC50 (second compound 0.1 µM): > 100 nM
IC50 (second compound 0.316 µM): > 100 nM
IC50 (second compound 1 µM): > 100 nM
IC50 (second compound 3.16 µM): < 0.316 nM
IC50 (second compound 10 µM): < 0.316 nM
viability, T/C [31]: 102%
viability, T/C [32]: 98%
viability, T/C [33]: 99.7%
viability, T/C [34]: 91.3%
viability, T/C [1]: 90.4%
viability, T/C [2]: 86.4%
viability, T/C [35]: 102%
viability, T/C [36]: 102%
viability, T/C [37]: 90.6%
viability, T/C [38]: 93.9%
viability, T/C [7]: 84.3%
viability, T/C [8]: 76.3%
viability, T/C [39]: 77.5%
viability, T/C [40]: 64.6%
viability, T/C [41]: 73.2%
viability, T/C [42]: 71.4%
viability, T/C [13]: 72.1%
viability, T/C [14]: 64.9%
viability, T/C [43]: 0.11%
viability, T/C [44]: 0.09%
viability, T/C [45]: 0.09%
viability, T/C [46]: 0.08%
viability, T/C [19]: 0.1%
viability, T/C [20]: 0.16%
viability, T/C [47]: 0.07%
viability, T/C [48]: 0.07%
viability, T/C [49]: 0.08%
viability, T/C [50]: 0.07%
viability, T/C [25]: 0.08%
viability, T/C [26]: 0.13%
